Test results published in PMC11497069, “Novel Arf1 Inhibitors Drive Cancer Stem Cell Aging and Potentiate Anti‐Tumor Immunity” (Advanced Science, 2024).

Target: T1, Arf1 (Homo sapiens, UniProt P84077)
T1 construct: endogenous Arf1 in Huh7 cells, active form pulled down with GGA3 and detected with anti-Arf1 antibody
Assay: GGA3 pull-down of active Arf1, western blot
Format: cell-based
Conditions: Huh7 cells; GBF1-dependent Arf1 activation

T1 sequence (P84077 2-181): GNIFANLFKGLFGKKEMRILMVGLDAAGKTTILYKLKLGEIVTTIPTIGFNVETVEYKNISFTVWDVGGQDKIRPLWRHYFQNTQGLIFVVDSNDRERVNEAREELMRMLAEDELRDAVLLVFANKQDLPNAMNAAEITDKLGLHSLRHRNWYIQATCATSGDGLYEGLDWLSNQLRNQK

SMILES	GGA3 pull-down of active Arf1, western blot
C(=N\Nc1ncnc2sc3c(c12)CCCC3)/c1ccc2[nH]ccc2c1 [DU101]	DU101 or DU102 treatment significantly inhibited Arf1 activity
C(=N\Nc1ncnc2sc3c(c12)CCCCCC3)/c1ccc2[nH]ccc2c1 [DU102]	DU101 or DU102 treatment significantly inhibited Arf1 activity
